From patent publication US20020182590A1, “Determining protein function in cell culture using RNA interference” (Vanderbilt University, priority 2001, published 2002) come the findings set out here.

The test system of this test is outwardly rectifying whole-cell currents of C. elegans body wall muscles. The experiment in a line: Whole-cell patch clamp recordings from cultured myo-3::GFP-expressing body wall muscle cells. Format: cell-based. The following applies: 20 mM TEA, 3 mM 4-AP. As for the experimental part: FIGS. 3A-3C—Whole-cell recordings from C. elegans body wall muscles. […] Holding potential =−80 mV. […] Values are means±S.E. (n=8). […] Steady-state currents in the presence and absence of the drugs were measured at +80 mV. Drug effects were reversible. Values are means±S.E. (n=3-5).
Electrophysiology. Cells are patch clamped using either the conventional whole-cell mode or perforated patch method. Initially, whole-cell measurements are performed using “physiological” pipette and bath solutions. The composition of C. elegans extracellular and intracellular fluids is currently unknown. Ascaris bath Ringer's (Richmond & Jorgenson, 1999) and conventional high K^+, low Na^+ and Cl^− pipette solutions are used. Standard voltage clamp protocols are used to assess the voltage-dependence of channels responsible for whole-cell currents.
For these experiments, the inventors mimicked the experimental protocol and bath and pipette solutions used recently for in vivo patch clamp studies of C. elegans body wall muscles (Richmond et al., 1999). When cultured body muscles were patch clamped with a pipette solution containing 120 mM KCl (Richmond et al., 1999), slowly inactivating, strongly outwardly rectifying currents were observed (FIG. 3). These currents were inhibited 40% by 20 mM TEA and 85% by 20 mM TEA plus 3 mM 4-aminopyridine (4-AP). […]
For orientation: The patch-clamp technique gives a direct electrical read-out from membranes.

Consider `CC[N+](CC)(CC)CC` [TEA], for which the “reversibility of drug effects on currents” value is “reversible”. In addition, where the note is “bath addition, steady-state currents at +80 mV, pipette 120 mM KCl”, the “inhibition of whole-cell currents” value was 40%.
